Test results as given in patent publication US6624140B1, “Synthetic peptides with antimicrobial and endotoxin neutralizing properties for management of the sepsis syndrome” (Academisch Ziekenhuis Bij de Universiteit van Amsterdam …, priority 1997, dated 2003).
No end group written: not given here.

Experiments:
[1] = ELISA binding to immobilized endotoxins of increasing complexity, effect of plasma; set-up: species or system Escherichia coli
Procedure: FIG. 4. Effect of endotoxin complexity and plasma concentration on the binding of synthetic peptide BP2 of the invention to immobilized LPS. Coated ELISA microtiter plates containing E.coli D31m4 Lipid A, Re, J5 or 0111:B4 LPS were incubated with synthetic peptide at a concentration of 40 ng/ml in the presence of plasma at dilutions to 10% (v/v). Binding activity was determined by the ELISA microplate lipid A binding assay as previously described.
Double-immunodiffusion of the peptides of the invention against ‘rough’ R-type E. coli D31m4 Re-LPS (List Biological Laboratories Inc., Calif.) or the structurally more complex ‘smooth’ S-type E. coli 0111:B4 LPS (Sigma Chemical Co., Rockford, Ill.) was performed in 0.8% (w/v) agarose containing 50 mM Tris and 0.1% (w/v) Triton X100, pH 7.5. for 16 h at 20° C. PmB and BPI(85-102) were included as control compounds for comparative purposes. The microprecipitates formed were visualized by Coommassie brilliant blue staining. […] Since the amount of precipitate formed is a function of valency, the peptides of the invention appear to be capable of a high degree of intermolecular binding of LPS molecules via the Lipid A moieties. […] The degree of precipitation of endotoxin by the synthetic peptides according to the invention was determined by measurement of the optical density of insoluble complexes formed at 340 nm (FIG. 2). […]

[2] = Capture of TAG-labeled endotoxin by immobilized peptide (ECL); type: binding, Escherichia coli; details: biotinylated BP2 on streptavidin beads; TAG-labeled J5 LPS
Procedure: FIGS. 5A and 5B. Capture of labeled endotoxin by immobilized synthetic peptide. 2 ng of biotinylated synthetic peptide BP2, immobilized on 20 μg of streptavidin-coated supramagnetic polystyrene beads (Dynabeads M-280, Dynal A. S., Oslo, Norway) was incubated with the indicated amounts of chemiluminescent TAG-labeled E. coli J5 LPS for 20 min at 23° C. The amount of captured endotoxin, after a washing cycle with Phosphate buffer containing 0.1% (v/v) Triton X100, was determined by electochemiluminescence detection (ECL) using an Origen Analyser (Igen Inc., Rockville, Mass.). […] The values are the means of triplicate determinations corrected for non-specific binding.
Capture of the TAG labeled J5 LPS by immobilized synthetic peptide was quantitated by electrochemiluminescence detection subsequent to washing steps with phosphate buffer containing 0.1% (w/v) Triton X100 to remove excess unbound LPS. […] This confirms the high capacity of immobilized peptides of the invention for endotoxin in solution. […] LPS with high affinity and are universal lipid A binding ligands. The above mentioned microplate experiments were employed to determine the endotoxin binding activity and specificity of the synthetic peptides and formed the basis for the development of a novel highly sensitive endotoxin assay. […] The same degree of concentration-dependent inhibition was observed when various amounts of added endotoxin were assayed directly in plasma dilutions.

[3] = Endotoxin Inhibition ELISA (EIE), competitive inhibition of Lipid A binding; set-up: species or system Escherichia coli; details: biotinylated BP2; 1 pg/ml E. coli 0111:B4 LPS
Procedure: FIG. 6. Competitive inhibition of binding of synthetic peptide BP2 to immobilized lipid A by endotoxin. Biotinylated BP2 peptide in the indicated concentration range was pre-incubated with E. coli 0111:B4 LPS at 1 pg/ml for 20 min at 23° C. and the residual endotoxin binding activity was determined with the use of a lipid A binding ELISA microplate assay. Individual values are the means of triplicate experiments corrected for non-specific binding.
FIGS. 7A and 7B. Detection of endotoxin in solution with a Lipid A binding assay, the endotoxin inhibition ELISA (EIE) microplate assay. Dose-response of residual LPS binding activity of synthetic peptide BP2 at 8 ng/ml after pre-incubation with E. coli 0111:B4 LPS in the ranges from 0.1 to 1000 pg/ml (Panel A) or from 0.1 to 100 pg/ml (Panel B).
Capture of the TAG labeled J5 LPS by immobilized synthetic peptide was quantitated by electrochemiluminescence detection subsequent to washing steps with phosphate buffer containing 0.1% (w/v) Triton X100 to remove excess unbound LPS. […] This confirms the high capacity of immobilized peptides of the invention for endotoxin in solution. […] LPS with high affinity and are universal lipid A binding ligands. […]

[4] = Double-immunodiffusion against Re-LPS; type: binding, Escherichia coli; details: 0.8% agarose, 16 h at 20° C.; data not shown
Procedure: (§1) Double-immunodiffusion of the peptides of the invention against ‘rough’ R-type E. coli D31m4 Re-LPS (List Biological Laboratories Inc., Calif.) or the structurally more complex ‘smooth’ S-type E. coli 0111:B4 LPS (Sigma Chemical Co., Rockford, Ill.) was performed in 0.8% (w/v) agarose containing 50 mM Tris and 0.1% (w/v) Triton X100, pH 7.5. for 16 h at 20° C. PmB and BPI(85-102) were included as control compounds for comparative purposes. The microprecipitates formed were visualized by Coommassie brilliant blue staining. […] Since the amount of precipitate formed is a function of valency, the peptides of the invention appear to be capable of a high degree of intermolecular binding of LPS molecules via the Lipid A moieties. […] The degree of precipitation of endotoxin by the synthetic peptides according to the invention was determined by measurement of the optical density of insoluble complexes formed at 340 nm (FIG. 2). […] Binding characteristics of biotinylated derivatives of the synthetic peptides BP1, BP2, BP2.1 and the control peptide BPI(85-102) were determined on ELISA microtiter plates coated with E. coli D31m4 Lipid A. Specific binding of the biotinylated peptides to the immobilized Lipid A was determined by development with Streptavidin-HRP and 3, 5, 3′, 5′ tetra-methylbenzidine (TMB) substrate and expressed as the corrected optical density at 450 nm. […]

[5] = Double-immunodiffusion against 0111:B4 LPS; type: binding, Escherichia coli; details: 0.8% agarose, 16 h at 20° C.; data not shown
Procedure: as §1

Row | Substance | degree of binding versus complexity of immobilized LPS ([1]; peptide 40 ng/ml) | effect of plasma on binding to endotoxins ([1]; up to 5% (v/v) heat-treated, clarified plasma) | molar excess of LPS up to which binding response is linear [2] [fold] | molar excess of endotoxin at saturation [2] [fold] | stochiometric ratio of peptide to LPS up to which capture is linear [2] | inhibition of binding of peptide to immobilized Lipid A [3] [%] | precipitation of Re LPS [4] | precipitation of 0111 LPS [5]
1 | GKWKLFKKAFKKFLKILAC-OH [BP2, Gly-Lys-Trp-Lys-Leu-Phe-Lys-Lys-Ala-Phe-Lys-Lys-Phe-Leu-Lys-Ile-Leu-Ala-Cys] | decreases with increasing complexity of immobilized LPS | no significant effect | 2 | 8 | 1 to 2 | 65 |  | 
2 | Ile-Lys-Ile-Ser-Gly-Lys-Trp-Lys-Ala-Gin-Lys-Arg-Phe-Leu-Lys-Met-Ser-Gly-(Cys) (IKISGKWKAQKRFLKMSGC; listed as Homo sapiens) [BPI(85-102), reference compound] |  |  |  |  |  |  | considerably less | considerably less
